Numbers after ± are expanded uncertainties.
Experiment: activity coefficient (dimensionless); of the first substance listed, at infinite dilution; xn = mol fraction of the nth substance listed
Settings: 101 kPa, Liquid, Chromatography, x1 = 0

Row | Structure (SMILES) | activity coefficient (318.15 K) | activity coefficient (328.15 K) | activity coefficient (338.15 K) | activity coefficient (348.15 K) | activity coefficient (358.15 K) | activity coefficient (368.15 K)
1 | C=CCCCC [hex-1-ene] + COCC[N+]1(C)CCCC1.O=S(=O)([N-]S(=O)(=O)C(F)(F)F)C(F)(F)F | 9.74 ± 0.66 | 9.34 ± 0.64 | 8.92 ± 0.61 | 8.61 ± 0.59 | 8.24 ± 0.56 | 7.96 ± 0.54
2 | CCCCCC [hexane] + COCC[N+]1(C)CCCC1.O=S(=O)([N-]S(=O)(=O)C(F)(F)F)C(F)(F)F | 19 ± 1.3 | 17.8 ± 1.2 | 16.7 ± 1.1 | 15.9 ± 1.1 | 15 ± 1 | 14.3 ± 1
3 | CO [methanol] + COCC[N+]1(C)CCCC1.O=S(=O)([N-]S(=O)(=O)C(F)(F)F)C(F)(F)F | 1.37 ± 0.09 | 1.27 ± 0.08 | 1.18 ± 0.08 | 1.1 ± 0.07 | 1.03 ± 0.06 | 0.972 ± 0.061
4 | CCCC(=O)OC [methyl butanoate] + COCC[N+]1(C)CCCC1.O=S(=O)([N-]S(=O)(=O)C(F)(F)F)C(F)(F)F | 1.29 ± 0.08 | 1.31 ± 0.09 | 1.33 ± 0.09 | 1.35 ± 0.09 | 1.36 ± 0.09 | 1.38 ± 0.09
5 | COC(C)=O [methyl ethanoate] + COCC[N+]1(C)CCCC1.O=S(=O)([N-]S(=O)(=O)C(F)(F)F)C(F)(F)F | 0.71 ± 0.05 | 0.73 ± 0.05 | 0.74 ± 0.05 | 0.76 ± 0.05 | 0.77 ± 0.05 | 0.78 ± 0.05
6 | CCC(=O)OC [methyl propanoate] + COCC[N+]1(C)CCCC1.O=S(=O)([N-]S(=O)(=O)C(F)(F)F)C(F)(F)F | 0.92 ± 0.06 | 0.94 ± 0.06 | 0.96 ± 0.06 | 0.98 ± 0.06 | 0.99 ± 0.06 | 1.01 ± 0.06
7 | CC1CCCCC1 [methylcyclohexane] + COCC[N+]1(C)CCCC1.O=S(=O)([N-]S(=O)(=O)C(F)(F)F)C(F)(F)F | 15.4 ± 1.1 | 14.4 ± 1 | 13.5 ± 0.9 | 12.7 ± 0.9 | 12 ± 0.8 | 11.2 ± 0.8
8 | CCCCCCCCC [nonane] + COCC[N+]1(C)CCCC1.O=S(=O)([N-]S(=O)(=O)C(F)(F)F)C(F)(F)F | 58.1 ± 4 | 52.9 ± 3.6 | 48.4 ± 3.3 | 44.3 ± 3 | 41 ± 2.8 | 37.8 ± 2.6
9 | C=CCCCCCC [oct-1-ene] + COCC[N+]1(C)CCCC1.O=S(=O)([N-]S(=O)(=O)C(F)(F)F)C(F)(F)F | 20.8 ± 1.4 | 19.5 ± 1.3 | 18.2 ± 1.2 | 17.3 ± 1.2 | 16.3 ± 1.1 | 15.6 ± 1.1
10 | CCCCCCCC [octane] + COCC[N+]1(C)CCCC1.O=S(=O)([N-]S(=O)(=O)C(F)(F)F)C(F)(F)F | 40.5 ± 2.8 | 36.9 ± 2.5 | 33.9 ± 2.3 | 31.4 ± 2.1 | 29 ± 2 | 27 ± 1.8
11 | CCCC(C)=O [pentan-2-one] + COCC[N+]1(C)CCCC1.O=S(=O)([N-]S(=O)(=O)C(F)(F)F)C(F)(F)F | 0.83 ± 0.05 | 0.84 ± 0.05 | 0.86 ± 0.06 | 0.87 ± 0.06 | 0.89 ± 0.06 | 0.9 ± 0.06
12 | CCC(=O)CC [pentan-3-one] + COCC[N+]1(C)CCCC1.O=S(=O)([N-]S(=O)(=O)C(F)(F)F)C(F)(F)F | 0.831 ± 0.054 | 0.851 ± 0.055 | 0.871 ± 0.056 | 0.887 ± 0.056 | 0.905 ± 0.057 | 0.919 ± 0.058
13 | CCCCC [pentane] + COCC[N+]1(C)CCCC1.O=S(=O)([N-]S(=O)(=O)C(F)(F)F)C(F)(F)F | 13.4 ± 0.9 | 12.7 ± 0.9 | 12.1 ± 0.8 | 11.5 ± 0.8 | 11 ± 0.8 | 10.5 ± 0.7
14 | CCCO [propan-1-ol] + COCC[N+]1(C)CCCC1.O=S(=O)([N-]S(=O)(=O)C(F)(F)F)C(F)(F)F | 2.2 ± 0.15 | 2.02 ± 0.14 | 1.86 ± 0.13 | 1.71 ± 0.11 | 1.58 ± 0.1 | 1.48 ± 0.1
15 | CC(C)O [propan-2-ol] + COCC[N+]1(C)CCCC1.O=S(=O)([N-]S(=O)(=O)C(F)(F)F)C(F)(F)F | 2 ± 0.14 | 1.83 ± 0.12 | 1.67 ± 0.11 | 1.54 ± 0.1 | 1.43 ± 0.09 | 1.34 ± 0.09
16 | c1ccncc1 [pyridine] + COCC[N+]1(C)CCCC1.O=S(=O)([N-]S(=O)(=O)C(F)(F)F)C(F)(F)F | 0.602 ± 0.042 | 0.61 ± 0.043 | 0.618 ± 0.043 | 0.625 ± 0.043 | 0.633 ± 0.044 | 0.639 ± 0.044

Source: the NIST ThermoML archive (doi:10.1016/j.jct.2012.03.015)
